{"source": "patent US7956065B2", "about": "“Pharmaceutical compounds” (Biovail Laboratories International (Barbados) S.R.L., priority 2008, dated 2011)", "key": {"[1]": {"test_system": "sub-chronic PCP-induced deficits in working memory in female hooded-Lister rats", "assay": "Novel object recognition (NOR) task after sub-chronic PCP treatment", "assay_type": "in vivo, rat", "from_the_text": "One of the symptoms of dementia is the progressive development of a cognitive deficit. Certain pre-clinical tests allow the observation of relatively subtle cognitive deficits in the rat. The cognitive deficits observed are seen in behaviours such as working memory deficits which may be measured by recognition tasks such as the novel object recognition (NOR) paradigm. A recognition memory task allows the comparison between presented stimuli and previously stored information. Ennaceur & Delacour, Behav. Brain Res. 31: 47-59 (1988) described the NOR test in rats which was based on the differential exploration of familiar and new objects. The NOR test is a non-rewarded, ethologically relevant paradigm based on the spontaneous exploratory behaviour of rats which measures working memory. Each session consists of two trials. In the first trial, the rats are exposed to two identical objects in an open field. During the second trial, rats are exposed to two dissimilar objects, one familiar object from the first trial and one new object. Object recognition in rats can be measured as the difference in time spent exploring the familiar and the new object. […] The duration of each trial is also important as a preference for the novel object only lasts during the first 1 or 2 minutes, after which time preference diminishes as both objects become familiar and are explored equally.\nThe abovementioned rodent model was used to assess the effects of the Isomer A on sub-chronic PCP-induced deficits in working memory using the novel object recognition (NOR) paradigm. The working hypothesis was that both acute and sub-chronic treatment with Isomer A will attenuate the selective working memory deficit induced by sub-chronic PCP as measured in the NOR test paradigm.\nRats are allowed to habituate to the empty test box and the behavioural test room environment for 1 hour on day 1. Prior to behavioural testing on day 2 rats are given a further 3 minutes habituation.\nFollowing the 3 minute habituation period, the rats are given two 3 minute trials (T1 and T2) which are separated by a 1 minute inter-trial interval in the home cage during which the objects are changed.\nIn this trial, the animals are allowed to explore two identical objects (A1 and A2) for 3 minutes.\nIn this trial, the animals explore a familiar object (A) from T1 and a novel object (B) for 3 minutes. The familiar object presented during T2 is a duplicate of the object presented in T1 in order to avoid any olfactory trails.\nThe object exploration is defined by animals licking, sniffing or touching the object with the forepaws whilst sniffing, but not leaning against, turning around, standing or sitting on the object. The exploration time (s) of each object (A1, A2, A and B) in each trial are recorded using two stopwatches and the following factors are calculated: • Total exploration time of both objects in the acquisition trial(s). • Total exploration time of both objects in the retention trial(s). • Habituation of exploratory activity. The LMA includes the exploration time, as measured by the number of lines crossed, for both the trials. • Discrimination index, which is calculated as shown below; (time spent exploring novel object−time spent exploring familiar object)÷total time spent in exploring the objects\nBehaviour in all trials was recorded on video for subsequent blind scoring.\n50 female hooded-Lister rats (Harlan, UK) were used as subjects for these studies. Rats were housed in groups of 5 under standard laboratory conditions under a 12 hr light:dark cycle, lights on at 0700 hr. All testing was carried out in the light phase. Food and water were freely provided. All experiments were conducted in accordance with the Animals Scientific Procedures Act, U.K. 1986 and were approved by the University of Bradford ethical review panel.\nRats were randomly assigned to two treatment groups and treated with vehicle, n=10 (distilled water, ip) or PCP, n=40 (2 mg/kg, ip) twice daily for 7 days. […]"}, "[2]": {"test_system": "PCP-induced cognitive deficit in the retention phase of the NOR task in female rats", "conditions": "cited from earlier work; for cognitive deficit in the retention phase of the NOR task: female rats"}}, "note": "“Also recorded” adds a separate entry of the source. Counter-ions that a name gives are not always drawn. Like-named read-outs stand apart in the source and are kept apart here."}
{"smiles": "COc1cc2c(cc1OC)[C@@H]1C[C@@H](O)[C@H](CC(C)C)CN1CC2", "note": "(single isomer, unassigned) [Isomer A]", "values": [{"measurement": "sedation (observation of the behaviour of the rats)", "setting": "[1]; Isomer A 30 mg/kg p.o.", "value": "did not appear sedated"}, {"measurement": "improvement of PCP-induced working memory deficit in retention phase of NOR task, statistical significance", "setting": "[1]; Isomer A 30 mg/kg p.o. (highest dose), FIG. 2", "value": "significant at the highest dose"}, {"measurement": "locomotor activity in the test arena (number of lines crossed, T1 and T2)", "setting": "[1]; Isomer A 30 mg/kg p.o., compared with vehicle control group, FIG. 4", "value": "significant effect to reduce locomotor activity"}, {"measurement": "discrimination index (DI) in sub-chronic PCP treated rats", "setting": "[1]; Isomer A 30 mg/kg p.o., did not reach statistical significance, FIG. 3", "value": "improved"}, {"measurement": "exploration of two identical objects in the acquisition phase (T1)", "setting": "[1]; Isomer A 3.0-30 mg/kg p.o., FIG. 1", "value": "no effect"}, {"measurement": "attenuation of sub-chronic PCP-induced deficit in retention trial (exploration time of familiar vs novel object)", "setting": "[1]; acute Isomer A 3-30 mg/kg p.o., 30 min before testing, sub-chronic PCP 2 mg/kg i.p. twice daily for 7 days then 7 days washout, FIG. 2", "value": "has efficacy to attenuate the sub-chronic PCP-induced deficit; also recorded: selective for the retention phase of the NOR task; also recorded: counteracted the effects of sub-chronic administration of phencyclidine hydrochloride (PCP)"}]}
{"smiles": "c1ccc(C2(N3CCCCC3)CCCCC2)cc1", "note": "[PCP, Phencyclidine hydrochloride]", "values": [{"measurement": "discrimination index (DI) after sub-chronic PCP treatment", "setting": "[1]; PCP 2 mg/kg i.p. twice daily for seven days, did not reach statistical significance, FIG. 3", "value": "induced a reduction in the discrimination index"}, {"measurement": "cognitive deficit in the retention phase of the NOR task", "setting": "[2]; acute PCP 0.5-2.0 mg/kg ip", "value": "produce a selective cognitive deficit"}, {"measurement": "cognitive deficit in the retention phase of the NOR task", "setting": "[2]; sub-chronic PCP 2 mg/kg i.p. twice daily for 7 days followed by 7 days drug-free period", "value": "produce a selective cognitive deficit"}]}
{"smiles": "O=C(CCCN1CCC(O)(c2ccc(Cl)cc2)CC1)c1ccc(F)cc1", "note": "[haloperidol]", "values": [{"measurement": "improvement of deficit induced by sub-chronic PCP in NOR paradigm", "setting": "[2]; haloperidol 0.05-0.075 mg/kg", "value": "not"}]}
{"smiles": "Cc1nc2n(c(=O)c1CCN1CCC(c3noc4cc(F)ccc34)CC1)CCCC2", "note": "[risperidone, reference compound]", "values": [{"measurement": "attenuation of sub-chronic PCP-induced deficit in retention trial", "setting": "[1]; risperidone 0.2 mg/kg i.p., 30 min before testing, FIG. 2", "value": "attenuate the sub-chronic PCP-induced deficit"}, {"measurement": "discrimination index (DI) in sub-chronic PCP treated rats", "setting": "[1]; risperidone 0.2 mg/kg i.p., did not reach statistical significance, FIG. 3", "value": "improved"}]}
